# Measurements: patent publication US20230404968A1, “Gamma Butyrolactone Derivatives for Inducing Differentiation in Neoplastic Cells” (priority 2022, published 2023)
# Columns and labels:
# KG1a cells [1] = test: Cell viability (MTS) assay, KG1a; details: for cellular viability (MTS): KG1a cancer cells, at the given concentrations, 24, 48, and 72 hours; for toxicity: KG1a cell line, at a concentration of induction of cellular differentiation (FIGS. 9C, 10C)
# Description: (§1) Cell culture methods and treatments. HL60 and KG1a cell lines were cultivated in RPMI 1640 (Sigma-USA) culture medium supplemented with 1% penicillin/streptomycin (Gibco-USA), 10% and 20% fetal bovine serum (Gibco-USA) for HL60 and KG1a cell lines, respectively, and 0.5% Glutamax (Gibco-USA) for HL60 cell line. The cells were incubated at 37° C., 5% CO2, and 90% humidity. The stock solution (Mol/L) of HSL-C8, HSL-C12, and A-factor were prepared in 0.1% (v/v) and 0.2% (v/v) and 0.2% (v/v) DMSO, respectively, as a vehicle and stored at −80° C. Different dilutions of HSL-C8, HSL-C12, A-factor, and GBL were prepared from the stock solution, and […] (<4% of the total volume) of each were added to the wells containing 100 μL of cell suspension (10000 and 20000 HL60 and KG1a cells per well). 0.1% and 0.2% DMSO were used as the negative control for HSL-C8, HSL-C12, and A-factor for each test. Culture medium were used as the negative control for GBL.
# (§2) Cell viability assay. The cell viability was evaluated via (MTS) assay. HL60, KG1a, and PBMC cells were treated with HSL-C8, HSL-C12, A-factor, and GBL in 96-well plates for 24, 48, and 72 hours. Thereafter, […], of MTS/PMS solution were added to each well and the cells were incubated for 90 minutes. The optical density (OD) of samples was measured via spectrophotometer (EPOCH, BioTek, USA) at 490 nm and the viability of cells was calculated via the following formula:
# (§3) Cell viability (%)=[ODsample/ODcontrol]×100
# [2] = tested on: peripheral blood mononuclear cells (PBMC); test: Cell viability (MTS) assay, PBMC; type: cell-based; details: normal cells (PBMC), at the given concentrations, 24, 48, and 72 hours
# Description: Cell viability assay. The cell viability was evaluated via (MTS) assay.
# as §3
# KG1a cells [3] = test: Induction of differentiation: gene expression (qRT-PCR) and CD surface markers (flow cytometry), KG1a; type: cell-based; details: KG1a cell line; confirmed by expression of FLT3, PU1, CEBPA genes and CD3, CD20, CD14, CD33, CD16, CD56 surface markers
# Description: (§4) Cell culture methods and treatments.
# (§5) Flow cytometry. […] In addition, treated cells were incubated with antibody-dye conjugate against CD3, CD20, CD16, CD56, CD14, and CD33 for surface antigen analysis. Thereafter the samples were analyzed by flow cytometer (Attune NxT, Life Technologies-Thermo Fisher Scientific, USA). Treatment with 5 μL H2O2 and 1 μM ATRA were used as the positive controls for apoptosis and necrosis and surface antigen analyses, respectively. Data were analyzed with FlowJo software.
# (§6) RNA isolation and qRT-PCR. […] The concentration of extracted RNA was measured via spectrophotometer (EPOCH, BioTek, USA) at 260 nm. The quality of isolated RNA was further evaluated via agarose gel electrophoresis indicating two distinctive bands. Isolated RNA was then converted to cDNA via a commercial kit according to the manufacturer's instructions. The primers were designed with AlleleID software and Primer3 algorithm and then double-checked via the BLAST algorithm. cDNA samples were then prepared for analysis using a commercial kit and analyzed with qRT-PCR machine (Applied Biosystems-Thermo Fisher Scientific, USA).
# HL60 cells [4] = test: Induction of differentiation: gene expression (qRT-PCR) and CD surface markers (flow cytometry), HL60; type: cell-based; details: HL60 cell line; confirmed by expression of FLT3, PU1, CEBPA genes and CD3, CD20, CD14, CD33, CD16, CD56 surface markers
# Description: as §4, §5, §6
# HL60 cells [5] = test: Cell viability (MTS) assay, HL60; details: for cellular viability (MTS): HL60 cancer cells, at the given concentrations, 24, 48, and 72 hours; for toxicity: HL60 cell line, at a concentration of induction of cellular differentiation (FIGS. 9B, 10B)
# Description: as §1, §2, §3
# HL60 cells [6] = test: Apoptosis/necrosis by flow cytometry, Annexin-V-FITC/PI staining, HL60; type: cell-based; details: for apoptosis (early and late) and necrosis: HL60 cells
# Description: as §4, §5
# KG1a cells [7] = test: Apoptosis/necrosis by flow cytometry, Annexin-V-FITC/PI staining, KG1a; type: cell-based
# Description: as §4, §5
# HL60 cells [8] = test: Wright-Giemsa staining and light microscopy (morphology), HL60; type: cell-based
# Description: as §4
# (§7) Wright-Giemsa staining. HL60 and KG1a cells treated HSL-C8 and HSL-C12 were concentrated and then fixed on the slides with absolute ethanol prior to Wright-Giemsa staining. After staining for four minutes the 1 mL of tap water was added to the slides. After four minutes, they were washed with tap water, air-dried, and evaluated with a light microscopy.
# KG1a cells [9] = test: Wright-Giemsa staining and light microscopy (morphology), KG1a; type: cell-based
# Description: as §4, §7
SMILES,cellular viability (MTS) (KG1a cells [1]),toxicity (KG1a cells [1]),cellular viability (MTS) [2],terminal cellular differentiation (KG1a cells [3]),terminal cellular differentiation (HL60 cells [4]),cellular viability (MTS) (HL60 cells [5]),toxicity (HL60 cells [5]),also measured
"CC(C)CCCCC(=O)C1C(=O)OCC1CO (stereo not drawn) [A-factor, 2-isocapryloyl-3R-hydroxymethyl-gamma-butyrolactone]",do not decrease the cellular viability of treated cancer cells and normal cells (PBMC) significantly,minimal toxicity,do not decrease the cellular viability of treated cancer cells and normal cells (PBMC) significantly,induced terminal cellular differentiation,induced terminal cellular differentiation,do not decrease the cellular viability of treated cancer cells and normal cells (PBMC) significantly,minimal toxicity,
"O=C1CCCO1 [GBL, Gamma butyrolactone]",do not decrease the cellular viability of treated cancer cells and normal cells (PBMC) significantly,minimal toxicity,do not decrease the cellular viability of treated cancer cells and normal cells (PBMC) significantly,induced terminal cellular differentiation,induced terminal cellular differentiation,do not decrease the cellular viability of treated cancer cells and normal cells (PBMC) significantly,minimal toxicity,"apoptosis (early and late) and necrosis (HL60 cells [6]; 300 μM of GBL, 48 hours (FIG. 11)): minimal to no apoptosis (early and late) and necrosis; apoptosis (early and late) and necrosis (KG1a cells [7]; KG1a cells, 300 μM of GBL, 48 hours (FIG. 11)): minimal to no apoptosis (early and late) and necrosis"
CCCCCC(=O)CC(=O)N[C@H]1CCOC1=O [HSL-C8],do not decrease the cellular viability of treated cancer cells and normal cells (PBMC) significantly,,do not decrease the cellular viability of treated cancer cells and normal cells (PBMC) significantly,induced terminal cellular differentiation,induced terminal cellular differentiation,do not decrease the cellular viability of treated cancer cells and normal cells (PBMC) significantly,,"change of cell morphology (HL60 cells [8]; 50 μM and 100 μM of HSL-C8, 48 and 72 hours (FIG. 7A)): neutrophil and macrophage-like cells, with lobulated nuclei and expanded cytoplasm; concentrations that cause minimal to no apoptosis (HL60 cells [6]; human): ≤ 100 µM; change of cell morphology (KG1a cells [9]; 100 μM and 200 μM of HSL-C8, 48 and 72 hours (FIG. 7B)): neutrophil and macrophage-like cells, with lobulated nuclei and expanded cytoplasm; concentrations that cause minimal to no apoptosis (KG1a cells [7]; human): ≤ 100 µM"
CCCCCCCCCC(=O)CC(=O)N[C@H]1CCOC1=O [HSL-C12],do not decrease the cellular viability of treated cancer cells and normal cells (PBMC) significantly,,do not decrease the cellular viability of treated cancer cells and normal cells (PBMC) significantly,induced terminal cellular differentiation,induced terminal cellular differentiation,do not decrease the cellular viability of treated cancer cells and normal cells (PBMC) significantly,,"change of cell morphology (HL60 cells [8]; 100 μM and 150 μM of HSL-C12, 24 and 48 hours (FIG. 8A)): neutrophil and macrophage-like cells, with lobulated nuclei and expanded cytoplasm; apoptosis (early and late) and necrosis (HL60 cells [6]; 50 and 100 μM of HSL-C12, 24 hours (FIG. 4A)): minimal to no apoptosis (early and late) and necrosis; apoptosis (early and late) and necrosis (HL60 cells [6]; 50 and 100 μM of HSL-C12, 48 hours (FIG. 4B)): minimal to no apoptosis (early and late) and necrosis; change of cell morphology (KG1a cells [9]; 100 μM and 150 μM of HSL-C12, 24 and 48 hours (FIG. 8B)): neutrophil and macrophage-like cells, with lobulated nuclei and expanded cytoplasm; apoptosis (early and late) and necrosis (KG1a cells [7]; KG1a cells, 100 μM of HSL-C12, 24 hours (FIG. 4C)): minimal to no apoptosis (early and late) and necrosis; apoptosis (early and late) and necrosis (KG1a cells [7]; KG1a cells, 100 μM of HSL-C12, 48 hours (FIG. 4D)): minimal to no apoptosis (early and late) and necrosis; apoptosis and necrosis (KG1a cells [7]; KG1a cells, 150 μM of HSL-C12, 24 hours (FIG. 4C)): minimal apoptosis and necrosis; apoptosis (early and late) and necrosis (KG1a cells [7]; KG1a cells, 150 μM of HSL-C12, 48 hours (FIG. 4D)): moderate apoptosis (early and late) and necrosis"
